Assay type in all cases: in vivo
The test system of experiment [1] is Green Peach Aphid (Myzus persicae (Sulzer)). Briefly: Test D: control of Green Peach Aphid on sprayed radish plant. To be noted: 144 h, pre-infested, 6 days; for mortality at 50 ppm: sprayed at 50 ppm; for mortality at 250 ppm: sprayed at 250 ppm. The procedure:
(§1) Test compounds were formulated using a solution containing 10% acetone, 90% water and 300 ppm Activator 90@ non-ionic surfactant (Loveland Products, Loveland, Colorado, USA). The formulated compounds were applied in 1 mL of liquid through an atomized nozzle positioned 1.27 cm (0.5 inches) above the top of each test unit. Test compounds were sprayed at the rates indicated, and each test was replicated three times.
For evaluating control of Green Peach Aphid (Myzus persicae (Sulzer)) through contact and/or systemic means, the test unit consisted of a small open container with a 12-15-day-old radish plant inside. Prior to compound application, each test unit was pre-infested by placing on a leaf of the test plant 30-40 aphids on a piece of leaf excised from a culture plant (cut-leaf method). The aphids moved onto the test plant as the leaf piece desiccated. After pre-infestation, the soil of the test unit was covered with a layer of sand.
Test compounds were formulated and sprayed at 250 and 50 ppm. After spraying of the formulated test compound, each test unit was allowed to dry for 1 hour and then a black, screened cap was placed on top. The test units were held for 6 days in a growth chamber at 19-21° C. and 50-70% relative humidity. Each test unit was then visually assessed for insect mortality.

Experiment [2] relates to Corn Planthopper (Peregrinus maidis (Ashmead)). The experiment is described as follows: Test B: control of Corn Planthopper on sprayed corn plant. The following applies: 144 h, nymphs, 6 days; for mortality at 50 ppm: sprayed at 50 ppm; for mortality at 250 ppm: sprayed at 250 ppm; for mortality at 10 ppm: sprayed at 10 ppm. How it is done: as §1
For evaluating control of Corn Planthopper (Peregrinus maidis (Ashmead)) through contact and/or systemic means, the test unit consisted of a small open container with a 3-4-day-old corn (maize) plant inside. White sand was added to the top of the soil prior to application of the test compound.
Test compounds were formulated and sprayed at 250, 50 and 10 ppm. After spraying of the formulated test compound, the test units were allowed to dry for 1 h before they were post-infested with ˜15-20 nymphs (18-to-21-day-old). A black, screened cap was placed on the top of each test unit, and the test units were held for 6 days in a growth chamber at 22-24° C. and 50-70% relative humidity. Each test unit was then visually assessed for insect mortality.

Experiment [3] has as its system cotton melon aphid (Aphis gossypii (Glover)). Briefly: Test E: control of cotton melon aphid on sprayed okra plant. The following applies: 144 h, pre-infested, 6 days; for mortality at 10 ppm: sprayed at 10 ppm; for mortality at 250 ppm: sprayed at 250 ppm; for mortality at 50 ppm: sprayed at 50 ppm. How it is done:
as §1
For evaluating control of cotton melon aphid (Aphis gossypii (Glover)) through contact and/or systemic means, the test unit consisted of a small open container with a 5-day-old okra plant inside. This was pre-infested with 30-40 insects on a piece of leaf according to the cut-leaf method, and the soil of the test unit was covered with a layer of sand.
Test compounds were formulated and sprayed at 250, 50, 10 and 2 ppm. After spraying, the test units were maintained in a growth chamber for 6 days at 19° C. and 70% relative humidity. Each test unit was then visually assessed for insect mortality.

A word on the mortality: it is the percentage killed. The low end stands for a weak lethal effect, the high end for a strong lethal effect. Take `CCC#CCn1ncc(-c2cncc(C(F)(F)F)c2)n1` [Compound 204, 3-[2-(2-Pentyn-1-yl)-2H-1,2,3-triazol-4-yl]-5-(trifluoromethyl)pyridine]: the mortality at 50 ppm in experiment [1] and in experiment [2] was not below 80% throughout. The mortality at 10 ppm in experiment [3] was not below 80%.

Regarding `CCC#CCn1ncc(-c2cc(OC)ccn2)n1` [Compound 234], the mortality at 250 ppm in experiment [3] is not below 80%.

For the molecule `CCC#CCn1nnc(-c2ccsc2)n1` [Compound 129], in experiment [3], the mortality at 250 ppm was not below 80%.

`CCC#CCn1ncc(-c2ccnc(C#N)c2)n1` [Compound 219] registered a mortality at 50 ppm in experiment [3] not below 80%.

The molecule `CCC#CCn1nnc(-c2ccc(Cl)cc2)n1` [Compound 60, 5-(4-chlorophenyl)-2-(pent-2-yn-1-yl)-1,2,3,4-tetrazole] registered a mortality at 250 ppm in experiment [1] not below 80%. Also, the mortality at 50 ppm in experiment [3] is not below 80%.

Take `CCC#CCn1nnc(-c2cnc3ccccc3c2)n1` [Compound 169]: the mortality at 250 ppm in experiment [2] was not below 80%. Moreover, the mortality at 50 ppm in experiment [3] was not below 80%.

In experiment [2], `CCC#CCn1cc(-c2cccc(C(F)(F)F)c2)nn1` [Compound 3, 1-(2-Pentyn-1-yl)-4-[3-(trifluoromethyl)phenyl]-1H-1,2,3-triazole] gave a mortality at 50 ppm not below 80%.

`CCC#CCn1nnc(-c2ccc(C(F)(F)F)cn2)n1` [Compound 122] returned a mortality at 250 ppm in experiment [2] not below 80%.

Take `CCC#CCn1ncc(-c2ccnc(C(F)(F)F)c2)n1` [Compound 197]: the mortality at 50 ppm in experiment [2] and in experiment [3] was not below 80% throughout.

Consider `CCC#CCn1ncc(-c2cncc(C#N)c2)n1` [Compound 232], for which the mortality at 50 ppm in experiment [3] was not below 80%.

As to `CCC#CCn1nnc(-c2ccc3ccccc3c2)n1` [Compound 168], the mortality at 50 ppm in experiment [2] and in experiment [3] was not below 80% each time.

For the molecule `CCC#CCn1ncc(-c2ccc(C(F)(F)F)cn2)n1` [Compound 124, 2-[2-(2-Pentyn-1-yl)-2H-1,2,3-triazol-4-yl]-5-(trifluoromethyl)pyridine], the mortality at 50 ppm in experiment [1], in experiment [2] and in experiment [3] was not below 80% throughout.

For `CCC#CCn1cc(-c2ccc(Cl)nc2)nn1` [Compound 156], the mortality at 250 ppm in experiment [3] was not below 80%.

Turning to `CCC#CCn1nnc(-c2cccc(OC)n2)n1` [Compound 251], the mortality at 250 ppm in experiment [2] and in experiment [3] was not below 80% each time.

Regarding `CCC#CCn1cc(-c2ccnc(C(F)(F)F)c2)nn1` [Compound 198], the mortality at 250 ppm in experiment [2] and in experiment [3] was not below 80% throughout.

Turning to `CCC#CCn1ncc(-c2cc(C(F)(F)F)ccn2)n1` [Compound 203], the mortality at 250 ppm in experiment [1] and in experiment [2] was not below 80% each time. The mortality at 50 ppm in experiment [3] was not below 80%.

Molecule `CCC#CCn1nnc(-c2ccc(C(F)(F)F)cc2)n1` [Compound 64, 2-(2-Pentyn-1-yl)-5-[4-(trifluoromethyl)phenyl]-2H-tetrazole] returned a mortality at 50 ppm in experiment [1] not below 80%. Also, the mortality at 10 ppm in experiment [2] and in experiment [3] was not below 80% each time.

`CCC#CCn1nnc(-c2cc(C(F)(F)F)ccn2)n1` [Compound 177]: the mortality at 50 ppm in experiment [3] was not below 80%.

As for `CCC#CCn1nnc(-c2ccnc(OC)c2)n1` [Compound 236, 2-Methoxy-4-[2-(2-pentyn-1-yl)-2H-tetrazol-5-yl]pyridine], the mortality at 250 ppm in experiment [1] was not below 80%. Further, the mortality at 50 ppm in experiment [2] and in experiment [3] was not below 80% each time.

For `CCC#CCn1cc(-c2cc(C(F)(F)F)ccn2)nn1` [Compound 208], the mortality at 50 ppm in experiment [2] was not below 80%. Also, in experiment [3], the mortality at 250 ppm was not below 80%.

Regarding `CCC#CCn1nnc(-c2cccs2)n1` [Compound 130], the mortality at 250 ppm in experiment [3] was not below 80%.

`CCC#CCn1cc(-c2ccc(OC(F)(F)F)nc2)nn1` [Compound 206] gave a mortality at 250 ppm in experiment [2] not below 80%.

In experiment [3], `CCC#CCn1nnc(-c2ccnc(C#N)c2)n1` [Compound 222] registered a mortality at 50 ppm not below 80%.

With `CCC#CCn1ncc(-c2ccc(OC(F)(F)F)nc2)n1` [Compound 207, 5-[2-(2-Pentyn-1-yl)-2H-1,2,3-triazol-4-yl]-2-(trifluoromethoxy)pyridine], the mortality at 50 ppm in experiment [1], in experiment [2] and in experiment [3] was not below 80% in each case.

`CCC#CCn1cc(-c2ccc(F)cn2)nn1` [Compound 149] came in with a mortality at 50 ppm in experiment [2] not below 80%. The molecule further had a mortality at 250 ppm in experiment [3] not below 80%.

In experiment [3], `CCC#CCn1cc(-c2cccc(C#N)n2)nn1` [Compound 249] showed a mortality at 250 ppm not below 80%.

Take `CCC#CCn1cc(-c2ccc(C(F)(F)F)nc2)nn1` [Compound 125]: the mortality at 250 ppm in experiment [2] is not below 80%.

As to `CCC#CCn1cc(-c2cncc(F)c2)nn1` [Compound 154], the mortality at 250 ppm in experiment [2] and in experiment [3] was not below 80% throughout.

On to `CCC#CCn1ncc(-c2cccc(OC)n2)n1` [Compound 237], for which the mortality at 50 ppm in experiment [2] was not below 80%. In experiment [3], this molecule had a mortality at 250 ppm not below 80%.

Consider `CCC#CCn1nnc(-c2ccnc(C(F)(F)F)c2)n1` [Compound 188], for which the mortality at 250 ppm in experiment [1] and in experiment [3] was not below 80% throughout. The mortality at 10 ppm in experiment [2] was not below 80%. In experiment [3], this molecule showed a mortality at 50 ppm not below 80%.

Turning to `CCC#CCn1cc(-c2cncc(OC)c2)nn1` [Compound 255], in experiment [2], the mortality at 250 ppm was not below 80%.

`CCC#CCn1ncc(-c2ccc(F)cn2)n1` [Compound 150] gave a mortality at 250 ppm in experiment [1] not below 80%. In addition, the mortality at 50 ppm in experiment [2] and in experiment [3] was not below 80% throughout.

As for `CCC#CCn1cc(-c2cncc(C(F)(F)F)c2)nn1` [Compound 205], the mortality at 250 ppm in experiment [2] and in experiment [3] was not below 80% each time.

Regarding `CCC#CCn1ncc(-c2cncc(OC)c2)n1` [Compound 252], the mortality at 250 ppm in experiment [3] was not below 80%.

With `CCC#CCn1nnc(-c2cc3ccccc3o2)n1` [Compound 194], in experiment [2], the mortality at 250 ppm is not below 80%. This molecule registered a mortality at 50 ppm in experiment [3] not below 80%.

Regarding `CCC#CCn1ncc(-c2cc(F)cc(C#N)c2)n1` [Compound 175, 3-Fluoro-5-[2-(2-pentyn-1-yl)-2H-1,2,3-triazol-4-yl]benzonitrile], the mortality at 50 ppm in experiment [2] and in experiment [3] was not below 80% each time.

Take `CCC#CCn1nnc(-c2cc(C#N)ccn2)n1` [Compound 303]: the mortality at 250 ppm in experiment [3] was not below 80%.

In turn, `CCC#CCn1cc(-c2cncc(C#N)c2)nn1` [Compound 233] yielded a mortality at 250 ppm in experiment [3] not below 80%.

With `CCC#CCn1nnc(-c2cc(OC)ccn2)n1` [Compound 223], the mortality at 250 ppm in experiment [3] is not below 80%.

Consider `CCC#CCn1cc(-c2cccc(C(F)(F)F)n2)nn1` [Compound 212], for which the mortality at 250 ppm in experiment [2] is not below 80%.

Consider `CCC#CCn1cc(-c2ccccc2)cn1` [Compound 114], for which the mortality at 250 ppm in experiment [2] and in experiment [3] was not below 80% throughout.

For the molecule `CCC#CCn1ncc(-c2cccc(C#N)n2)n1` [Compound 250], the mortality at 50 ppm in experiment [2] and in experiment [3] was not below 80% in each case.

In the case of `CCC#CCn1cc(-c2ccc(C(F)(F)F)cn2)nn1` [Compound 123, 2-[1-(2-Pentyn-1-yl)-1H-1,2,3-triazol-4-yl]-5-(trifluoromethyl)pyridine], the mortality at 50 ppm in experiment [2] and in experiment [3] was not below 80% throughout.

The values are drawn from patent US20250002476A1, “AZOLE COMPOUNDS FOR CONTROLLING INVERTEBRATE PESTS” (FMC Corporation, priority 2021, published 2025).
